The values that follow come from US20240358015A1, “HERBICIDAL COMPOSITIONS” (Agrematch Ltd., priority 2021, published 2024).

Holding throughout (assay type): in vivo
Assay [1] has as its system Amaranthus palmeri. The assay is described as follows: Growth-chamber post-emergence herbicidal assay (Example 2). On the procedure:
(§1) Herbicidal activity was determined by post-emergence application on 8-day old plants (weeds) of the Amaranthus palmeri and Setaria viridis species that were grown at 16 hours/8 hours day/night cycles at 30° C./25° C., respectively. Leaf stage was typically 4-6 for A. palmeri and 3-4 for S. viridis.
(§2) In each treatment, 2-3 pots, each containing about 5 plants each (for Setaria viridis), and one 9-pack, containing about 9 plants (for Amaranthus palmeri), were sprayed using a VL-SET Paasche Airbrush with 0.3-1.5 ml solution containing 0.125-2 mg/ml of a tested compound, which is equivalent to about 125-2000 g/ha.
(§3) Damage assessment: Herbicidal activity was assessed and scored 3-4 days after application by visual inspection of the plants in comparison to plants treated with the formulation alone (with no active ingredient) as control. Activity score is in the range of 0 to 100, where 0 represents no herbicidal activity like control plants and 100 represents the maximal herbicidal activity (i.e., total death of the plant).
Formulation design: Compounds were tested on A. Palmeri in various formulations, and in varying concentrations for each of the tested formulations, in order to determine optimal conditions for its application and performance. Activity scores were determined as described hereinabove. Solubility scores were determined by visual inspection on a scale of 1-10, with 10 representing complete solubilization and 1 represents nullified solubilization.
Each of the obtained solution was then mixed with different adjuvants and applied at a rate equivalent to 500 g/ha for A. palmeri and 1000 g/ha for S. viridis. Herbicidal activity scores 3-4 days after application are presented Table 3 below.

The test system of assay [2] is Setaria viridis. The assay is described as above. On the procedure:
as §1, §2, §3
Herbicidal activity scores 3-4 days after application are presented Table 3 below.

The test system of assay [3] is Amaranthus palmeri. Nature of the assay: Growth-chamber post-emergence assay (Example 8). The procedure:
(§4) Herbicidal activity of Compounds 1B, 3, 4, 5 and 6 was determined by post-emergence application on 8-day old plants (weeds) of the Amaranthus palmeri and Setaria viridis species that were grown at 16 hours/8 hours day/night cycles at 30° C./25° C., respectively. Leaf stage was typically 4-6 for A. palmeri and 3-4 for S. viridis.
(§5) In each treatment, between 1 to 4 pots (8×12 cm), containing about 6 Amaranthus palmeri or Setaria viridis plants, were sprayed using a VL-SET Paasche Airbrush with a 1 ml-solution containing 0.250-2 mg/ml of the tested compound, which is equivalent to about 250-2000 g/ha.
as §3

Assay [4] has as its system Setaria viridis. The assay is described as follows: Growth-chamber post-emergence assay (Example 8). The procedure: as §4, §5, §3
Where [5] appears, read: 250 g/ha, 2% MIPA, 2% DMSO, 0.25% Genapol, 2% HASTEN.
Setting [6] is: 500 g/ha, 2% MIPA, 2% DMSO, 0.25% Genapol, 2% HASTEN.
Setting [7] is: 1000 g/ha, 2% MIPA, 2% DMSO, 0.25% Genapol, 2% HASTEN, 3-4 days after application, scale 0-100.
Where [8] appears, read: 1000 g/ha, 8.6% Acetophenone, 1% TWEEN 80, 1.4% NMP, 0.5% ECO, 0.5% Ca-LAS, 0.05% Break-Thru.
The mark [9] stands for this setting: 2000 g/ha, 8.6% Acetophenone, 2% TWEEN 20, 1.4% NMP, 0.5% ECO, 0.5% Ca-LAS, 0.05% Break-Thru.
Where [10] appears, read: 250 g/ha, 10% Acetone, 1.85% MIPA, 5% DMSO, 0.23% Genapol, 1.85% HASTEN.
Setting [11] is: 500 g/ha, 10% Acetone, 1.7% MIPA, 5% DMSO, 0.85% TWEEN20, 1.7% HASTEN.
Setting [12] is: 1000 g/ha, 2% MIPA, 2% DMSO, 1% TWEEN20, 2% HASTEN.
[13] abbreviates: 2000 g/ha, 2% MIPA, 2% DMSO, 1% TWEEN20, 2% HASTEN.
Where [14] appears, read: 250 g/ha, 14% Acetone, 2% MIPA, 5% DMSO, 1% TWEEN20, 2% HASTEN.
The mark [15] stands for this setting: 330 g/ha, 5% Acetone, 2% MIPA, 2.5% DMSO, 0.25% Genapol, 2% HASTEN.
The mark [16] stands for this setting: 330 g/ha, 10% Acetone, 0.8% MIPA, 5% DMSO, 0.25% Genapol, 2% HASTEN.
Where [17] appears, read: 330 g/ha, 10% Acetone, 2% MIPA, 5% DMSO, 0.25% Genapol, 2% HASTEN.
Where [18] appears, read: 500 g/ha, 18.5% Acetone, 2% MIPA, 5% DMSO, 1% TWEEN20, 2% HASTEN.
[19] abbreviates: 2000 g/ha, 2% MIPA, 1% TWEEN20, 2% HASTEN.

On to `O=C(O)c1cc(O)c2c(c1)C(=O)c1cccc(O[C@@H]3O[C@H](CO)[C@@H](O)[C@H](O)[C@H]3O)c1C2=O` [Compound 1B, Rhein 8-glucoside], for which the “Activity Score” value in the assay with Amaranthus palmeri [1] (500 g/ha, 2% TWEEN 20, 0.05M Tris buffer pH 8.3, 0.05% Break-Thru) came to 30; with Amaranthus palmeri [1] (750* g/ha (rate adjusted to reflect that of the Rhein actual active ingredient), 2% TWEEN 20, 5.7 mM MIPA, 0.05% Break-Thru), 70; with Setaria viridis [2] (750* g/ha (rate adjusted to reflect that of the Rhein actual active ingredient), 1% Eta-70, 5.7 mM MIPA, 0.05% Break-Thru), 50. Further, the Herbicidal activity score in the assay with Amaranthus palmeri [3] (setting [5]) was 85; in the assay with Amaranthus palmeri [3] (setting [6]), 100; in the assay with Amaranthus palmeri [3] (setting [7]) it was 100; in the assay on Setaria viridis [4] (setting [5]), 70; in the assay with Setaria viridis [4] (setting [6]), 95; in the assay with Setaria viridis [4] (setting [7]), 90.
For `O=C(O)c1ccc2c(c1)C(=O)c1ccccc1C2=O` [Compound 2], the “Activity Score” value in the assay with Amaranthus palmeri [1] (500 g/ha, 4.3% Acetophenone, 1% TWEEN 80, 0.7% NMP, 0.25% ECO, 0.25% Ca-LAS, 0.05% Break-Thru) was 100; in the assay with Amaranthus palmeri [1] (setting [8]), 95; in the assay with Amaranthus palmeri [1] (2000 g/ha, 2% DMSO, 1% TWEEN 80, 0.05M Tris buffer pH 8, 0.05% Break-Thru), 100; with Setaria viridis [2] (1500 g/ha, 2% DMSO, 1% TWEEN 80, 0.05M Tris buffer pH 8, 0.05% Break-Thru), 40.
As to `COC(=O)c1ccc2c(c1O)C(=O)c1ccccc1C2=O` [Compound 3], the “Activity Score” value in the assay on Amaranthus palmeri [1] (setting [9]) is reported as 80; with Setaria viridis [2] (setting [9]), 10. Also, the Herbicidal activity score with Amaranthus palmeri [3] (setting [10]) amounted to 91; in the assay with Amaranthus palmeri [3] (setting [11]) it was 99; with Amaranthus palmeri [3] (setting [12]) it was 95; in the assay with Amaranthus palmeri [3] (setting [13]) it was 95; with Setaria viridis [4] (setting [10]) it was 63; with Setaria viridis [4] (setting [11]), 88. For the same molecule, the Herbicidal activity score with Setaria viridis [4] (setting [12]) was determined as 95; in the assay on Setaria viridis [4] (setting [13]), 100.
For `O=C1c2ccccc2C(=O)c2cc(CO)ccc21` [Compound 4], the “Activity Score” value is 95 with Amaranthus palmeri [1] (setting [8]); 95 with Amaranthus palmeri [1] (1500 g/ha, 8.6% Acetophenone, 4% TWEEN 20, 1.4% NMP, 0.5% ECO, 0.5% Ca-LAS, 0.05% Break-Thru); 40 in the assay with Setaria viridis [2] (1500 g/ha, 6% DMSO, 0.05% Break-Thru). For the same molecule, the Herbicidal activity score in the assay with Amaranthus palmeri [3] (setting [10]) is given as 85; in the assay on Amaranthus palmeri [3] (setting [14]) it was 90; in the assay with Amaranthus palmeri [3] (setting [15]) it was 88; with Amaranthus palmeri [3] (setting [16]), 93; in the assay on Amaranthus palmeri [3] (setting [17]), 80; with Amaranthus palmeri [3] (setting [18]), 95. In addition, the Herbicidal activity score in the assay with Setaria viridis [4] (setting [10]) stood at 45; in the assay on Setaria viridis [4] (setting [14]), 90; with Setaria viridis [4] (setting [15]) it was 80; in the assay with Setaria viridis [4] (setting [16]), 75; in the assay on Setaria viridis [4] (setting [17]) it was 88; with Setaria viridis [4] (setting [18]) it was 50.
As for `Cc1cc(O)c2c(c1)C(=O)c1cc(O)cc(O)c1C2=O` [Compound 5], the “Activity Score” value in the assay on Amaranthus palmeri [1] (setting [9]) is 70. Moreover, the Herbicidal activity score came to 95 with Amaranthus palmeri [3] (setting [12]), 100 in the assay with Amaranthus palmeri [3] (setting [19]), 75 with Setaria viridis [4] (setting [12]) and 90 in the assay with Setaria viridis [4] (setting [19]).
As for `O=C1c2ccccc2C(=O)c2c(O)cccc21` [Compound 6], the “Activity Score” value was determined as 75 in the assay on Amaranthus palmeri [1] (1500 g/ha, 8.6% Acetophenone, 1% TWEEN 80, 1.4% NMP, 0.5% ECO, 0.5% Ca-LAS, 0.05% Break-Thru) and 80 with Setaria viridis [2] (setting [8]). Also, the Herbicidal activity score in the assay with Amaranthus palmeri [3] (setting [14]) came to 10; in the assay on Amaranthus palmeri [3] (setting [18]) it was 70; with Amaranthus palmeri [3] (setting [12]), 70; with Amaranthus palmeri [3] (setting [13]), 90; in the assay on Setaria viridis [4] (setting [14]), 90; in the assay with Setaria viridis [4] (setting [18]), 40. In addition, the values for the Herbicidal activity score in the assay on Setaria viridis [4] (setting [12]) and with Setaria viridis [4] (setting [13]) were 90 and 95, respectively.
In the case of `Nc1ccc(O)c2c1C(=O)c1ccccc1C2=O` [Compound 7], the “Activity Score” value in the assay with Amaranthus palmeri [1] (setting [9]) is reported as 40.
